Laboratory results taken from patent US10342796B2, “Acrylanilide derivative, preparation method, and applications thereof in pharmacy” (Ancureall Pharmaceutical (Shanghai) Co., Ltd., priority 2015, dated 2019).
Where two headings read alike, the source gives them in different places.

Assays:
Experiment in all cases: Growth inhibition GI50 in vitro (CCK8/MTT, 72 h)
SK-BR-3 (Her2 amp) = format: cell-based, human; settings: Homo sapiens
AU565 (Her2 amp) = format: cell-based, human; settings: Homo sapiens
PC-9 (EGFR dE746-A750) = format: cell-based, human; settings: Homo sapiens
HCC827 (EGFR dE746-A750) = format: cell-based, human; settings: Homo sapiens
[1] = system: PC-9ER (EGFR delE746-A750/T790M); format: cell-based, human; settings: Homo sapiens, PC-9/ER; EGFR mutant cell line; range of GI50; read-out: GI50 PC9ER
H1975 (EGFR L858R/T790M) = format: cell-based, human; settings: Homo sapiens, NCI-H1975
A549 (EGFR WT) = format: cell-based, human; settings: Homo sapiens
[2] = system: H460 (EGFR wt, Kras G61H); format: cell-based, human; settings: Homo sapiens, NCI-H460
[3] = system: A431 (EGFR WT, amplification and high expression); format: cell-based, human; settings: Homo sapiens, A-431
[4] = system: H1299 (EGFR wt, Nras Q61K); format: cell-based, human; settings: Homo sapiens, NCI-H1299
N87 (HER2 Amp) = format: cell-based, human; settings: Homo sapiens
H292 (EGFR WT) = format: cell-based; settings: Homo sapiens, NCI-H292
Calu-3 (Her2 amp) = format: cell-based; settings: Homo sapiens
[5] = SK-BR-3, HER2 positive cell line, range of GI50, read-out: GI50 SK-BR-3
[6] = SK-BR-3, EGFR wt, Her2 amp, read-out: GI50
[7] = AU565, HER2 positive cell line, range of GI50, read-out: GI50 AU-565
[8] = AU565, EGFR wt, Her2 amp, read-out: GI50
[9] = EGFR mutant cell line, range of GI50, read-out: GI50 PC-9
[10] = PC-9, EGFR dE746-A750, read-out: GI50
[11] = HCC827, EGFR mutant cell line, range of GI50, read-out: GI50 HCC827
[12] = HCC827, EGFR dE746-A750, read-out: GI50
[13] = EGFR mutant cell line, range of GI50, read-out: GI50 H1975
[14] = H1975, EGFR L858R/T790M, read-out: GI50
[15] = A549, EGFR wild type cell line, range of GI50, read-out: GI50 A549
[16] = A549, EGFR wt, Kras G12S, read-out: GI50
[17] = EGFR wild type cell line, range of GI50, read-out: GI50 H460
[18] = H460, EGFR wt, Kras G61H, read-out: GI50
[19] = EGFR wild type cell line, range of GI50, read-out: GI50 A431
[20] = EGFR wild type cell line, range of GI50, read-out: GI50 H1299
[21] = H1299, EGFR wt, Nras Q61K, read-out: GI50
[22] = HER2 positive cell line, range of GI50, read-out: GI50 N87
[23] = N87, EGFR wt, Her2 amp, read-out: GI50
[24] = Calu-3, EGFR wt, Her2 amp, read-out: GI50

SMILES	GI50 (SK-BR-3 (Her2 amp); [5]) [nM]	GI50 (SK-BR-3 (Her2 amp); [6]) [nM]	GI50 (AU565 (Her2 amp); [7]) [nM]	GI50 (AU565 (Her2 amp); [8]) [nM]	GI50 (PC-9 (EGFR dE746-A750); [9]) [nM]	GI50 (PC-9 (EGFR dE746-A750); [10]) [nM]	GI50 (HCC827 (EGFR dE746-A750); [11]) [nM]	GI50 (HCC827 (EGFR dE746-A750); [12]) [nM]	GI50 [1] [nM]	GI50 (H1975 (EGFR L858R/T790M); [13]) [nM]	GI50 (H1975 (EGFR L858R/T790M); [14]) [nM]	GI50 (A549 (EGFR WT); [15]) [nM]	GI50 (A549 (EGFR WT); [16]) [nM]	GI50 [2, 17] [nM]	GI50 [2, 18] [nM]	GI50 ([3]; A431, EGFR wt, read-out: GI50) [nM]	GI50 [3, 19] [nM]	GI50 [4, 20] [nM]	GI50 [4, 21] [nM]	GI50 (N87 (HER2 Amp); [22]) [nM]	other results
C=CC(=O)Nc1cc(Nc2ncnc(Nc3cccc(F)c3)n2)c(OC)cc1N(C)CCN(C)C [Compound 114, N-(5-(4-(3-fluoro-phenylamino)-[1,3,5]triazin-2-ylamino)-2-((2-dimethylamino-ethyl)-methyl-amino)-4-methoxyl-phenyl)-acrylamide]	< 10	4.8	< 10	10	< 10	2	< 10	1.1	10 to 100	10 to 100	10	> 1000	> 1000	> 1000	> 1000	117	100 to 1000	> 1000	> 1000	< 10	GI50 (N87 (HER2 Amp); [23]): 4.8 nM; GI50 (H292 (EGFR WT); H292, EGFR wt, read-out: GI50): > 1000 nM; GI50 (Calu-3 (Her2 amp); [24]): 7.2 nM
C=CC(=O)Nc1cc(Nc2cc(Nc3cc(OC)c(Cl)cc3Cl)ncn2)c(OC)cc1N(C)CCN(C)C [Compound 136, N-(5-(6-(2,4-dichloro-5-methoxyl-phenylamino)-pyrimidin-4-ylamino)-2-((2-dimethylamino-ethyl)-methyl-amino)-4-methoxyl-phenyl)-acrylamide]	10 to 100		10 to 100		10 to 100		10 to 100		< 10	10 to 100		> 1000		> 1000			100 to 1000	> 1000		10 to 100	GI50 (PC-9 (EGFR dE746-A750); Table 15, 1000 nM to 0.03 nM serial dilution, read-out: GI50 PC-9 (EGFR dE746-A750)): 10.5 nM; GI50 (H1975 (EGFR L858R/T790M); Table 15, 1000 nM to 0.03 nM serial dilution, read-out: GI50 H1975 (EGFR L858R/T790M)): 10.1 nM; GI50 (A549 (EGFR WT); A549, Table 15, 1000 nM to 0.03 nM serial dilution, read-out: GI50 A549 (EGFR WT)): > 1000 nM; GI50 (N87 (HER2 Amp); Table 16, 1000 nM to 0.03 nM serial dilution, read-out: GI50 N87 (HER2 amp)): 11.2 nM; GI50 (H292 (EGFR WT); Table 15, 1000 nM to 0.03 nM serial dilution, read-out: GI50 H292 (EGFR WT)): > 1000 nM; GI50 (Calu-3 (Her2 amp); Calu-3, Table 16, 1000 nM to 0.03 nM serial dilution, read-out: GI50 Calu3 (HER2 amp)): 14.7 nM
C=CC(=O)Nc1cc(Nc2cc(Nc3ccc(F)c(Cl)c3)ncn2)c(OC)cc1N(C)CCN(C)C [Compound 140, N-(5-(6-(3-chloro-4-fluoro-phenylamino)-pyrimidin-4-ylamino)-2-((2-dimethylamino-ethyl)-methyl-amino)-4-methoxyl-phenyl)-acrylamide]	< 10	5.6	< 10	2.6	< 10	0.38	< 10	1.1	< 10	< 10	3.8	> 1000	> 1000	> 1000	> 1000	37.5	10 to 100	> 1000	> 1000	< 10	GI50 (N87 (HER2 Amp); [23]): 4.8 nM; GI50 (H292 (EGFR WT); H292, EGFR wt, read-out: GI50): > 1000 nM; GI50 (Calu-3 (Her2 amp); [24]): 12.5 nM
C=CC(=O)Nc1cc(Nc2cc(Nc3ccc(F)c(Cl)c3)ncn2)c(OC)cc1N1CCN(C2CCN(C)CC2)CC1 [Compound 147, N-(5-(6-(3-chloro-4-fluoro-phenylamino)-pyrimidin-4-ylamino)-4-methoxyl-2-(4-(1-methylpiperidin-4-yl)-piperazin-1-yl)-phenyl)-acrylamide]	< 10	5.6	< 10	2.6	< 10	0.58	< 10	4.7	< 10	< 10	4.6	> 1000	896	> 1000	> 1000	37.5	10 to 100	> 1000	> 1000	< 10	GI50 (N87 (HER2 Amp); [23]): 4.8 nM; GI50 (H292 (EGFR WT); H292, EGFR wt, read-out: GI50): > 1000 nM; GI50 (Calu-3 (Her2 amp); [24]): 12.5 nM
